The data set concerns cells. The data set can be described thus: Cell compliance with the spray formulations. It is filed as cell-based. The procedure: A study was undertaken to determine cell compliance with the spray formulations over a 48 hour testing period. […] Dose-response was linear (R^2=0.96 and 0.97 for gellan and lambda-carrageenan, respectively), with reduced cell death as the systems became increasing more dilute.

With gellan, the “Reduction in the number of living cells” value came out at 2 fold.

The record behind these values is US20230390323A1, “SPRAYABLE ANTIVIRAL FORMULATION” (priority 2020, published 2023).
